In publication PMC6753678, “Fueling Open Innovation for Malaria Transmission-Blocking Drugs: Hundreds of Molecules Targeting Early Parasite Mosquito Stages” (Frontiers in Microbiology, 2019):
Read-outs that look alike come from different tables or passages of the source.

Legend:
HepG2 cells [1] = assay: HepG2 cytotoxicity assay; conditions: HepG2 cytotoxicity unified across the three screens
How it was run: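 Here viability after a 48 h compound incubation (37°C, humidified 5% CO2) is measured by fluorescence and expressed as percent inhibition, with doxorubicin at 50 μM and DMSO as the bounding controls.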

[2] = tested on: P. falciparum late stage (stages IV-V) gametocytes; design: method as in Almela et al 2016; conditions: TCAMS screen comparison; ref Almela et al 2016; read-out: Pf GCT ATP IC50; cited from earlier work
[3] = tested on: P. falciparum female gametocytes; design: method as in Miguel-Blanco et al 2017; conditions: TCAMS screen comparison; ref Miguel-Blanco et al 2017; read-out: Pf FGAA IC50; cited from earlier work
HepG2 cells [4] = conditions: cited from earlier work
[5] = tested on: P. falciparum female gametocytes; assay: P. falciparum female gametogenesis assay (Pf FGAA); conditions: 1: YES; 0: NO
[6] = tested on: P. falciparum late stage (stages IV-V) gametocytes; assay: P. falciparum late stage gametocyte ATP depletion assay (Pf GC-ATP); conditions: 1: YES; 0: NO
[7] = value reported with the Pf FGAA screen, ref Miguel-Blanco et al 2017
[8] = value reported with the Pf GCT ATP screen, ref Almela et al 2016

Row | SMILES | Unified cytotox (HepG2 cells [1]) | IC50 [2] | IC50 [3] | HepG2 cytoxicity (HepG2 cells [4]; [7]) | Is compound selective in assay? Pf FGAA active? [5] | Is compound selective in assay? Pf GC-ATP active? [6] | HepG2 cytoxicity (HepG2 cells [4]; [8])
1 | CCN(CC)/C(=N/C(=N)NCc1ccc(Cl)cc1Cl)NCCCCCCN/C(=N\C(=N)NCc1ccc(Cl)cc1Cl)N(CC)CC [TCMDC-131819] | 36.73 µM | 300 nM | 4750 nM | 36.73 µM | 0 (0: NO) | 1 (1: YES) | –
2 | CCCCN(CCCC)/C(=N/C(=N)NCc1ccc(Cl)c(Cl)c1)NCCCCCCN/C(=N\C(=N)NCc1ccc(Cl)c(Cl)c1)N(CCCC)CCCC [TCMDC-131821] | 13.18 µM | 620 nM | 2510 nM | 13.96 µM | 0 (0: NO) | 1 (1: YES) | 12.4 µM
3 | COc1cc2nc(NCCCN3CCCCC3)nc(NCc3ccccc3)c2cc1OC [TCMDC-132012] | 7.89 µM | 300 nM | 900 nM | 6.84 µM | 0 (0: NO) | 1 (1: YES) | 8.94 µM
4 | CCc1c(CCNCCCCCCNC(C)Cc2ccc3c(c2CC)OCO3)ccc(OC)c1OC.Cl (centres unmarked) [TCMDC-132052] | 2.78 µM | 330 nM | 480 nM | 2.46 µM | 0 (0: NO) | 0 (0: NO) | 3.1 µM
5 | CCc1c(CCNCCCCCCNC(C)(C)Cc2ccc3c(c2CC)OCO3)ccc(OC)c1OC.Cl [TCMDC-132055] | 4.32 µM | 270 nM | 1220 nM | 4.27 µM | 0 (0: NO) | 1 (1: YES) | 4.37 µM
6 | Nc1c(Cl)cc(C(O)CNCCCCCOCCCc2ccc(O)c3ncccc23)cc1Cl.O=C(O)/C=C/C(=O)O (centres unmarked) [TCMDC-132088] | 6.14 µM | 450 nM | 2100 nM | 7.76 µM | 0 (0: NO) | 1 (1: YES) | 4.51 µM
7 | O=C(O)C(F)(F)F.O=S(=O)(NCCN1CCCC1)c1cccc(-c2ccc(CNC3Cc4ccccc4C3)cc2)c1 [TCMDC-132241] | 7.23 µM | 2150 nM | 3100 nM | 6.46 µM | 0 (0: NO) | 0 (0: NO) | 8 µM
8 | COc1ccc(CNC2Cc3ccccc3C2)cc1-c1ccc(S(=O)(=O)NCCN2CCCC2)cc1.O=C(O)C(F)(F)F [TCMDC-132248] | 7.08 µM | 1380 nM | 1990 nM | 5.89 µM | 0 (0: NO) | 0 (0: NO) | 8.28 µM
9 | COc1ccc(CNC2Cc3ccccc3C2)cc1-c1ccc(OC)c(S(=O)(=O)NCCN2CCCC2)c1.O=C(O)C(F)(F)F [TCMDC-132251] | 11.89 µM | 1140 nM | 2700 nM | 7.17 µM | 0 (0: NO) | 1 (1: YES) | 16.6 µM
10 | Cc1cccc2nc(-c3ccc(-c4ccc(CNCc5ccc(CN)cc5)cc4)s3)[nH]c12.O=C(O)C(F)(F)F [TCMDC-132809] | 19.40 µM | 860 nM | 470 nM | 14.79 µM | 1 (1: YES) | 1 (1: YES) | 24 µM
11 | NCc1ccc(CNCc2cccc(-c3ccc(-c4nc5cc(C(F)(F)F)ccc5[nH]4)cc3)c2)cc1.O=C(O)C(F)(F)F [TCMDC-132811] | 19.47 µM | 860 nM | 830 nM | 14.65 µM | 1 (1: YES) | 1 (1: YES) | 24.3 µM
12 | FC(F)(F)c1ccc2[nH]c(-c3ccc(-c4ccc(CNCCN5CCNCC5)cc4)s3)nc2c1.O=C(O)C(F)(F)F [TCMDC-132862] | 9.89 µM | 1290 nM | 3000 nM | 12.88 µM | 0 (0: NO) | 0 (0: NO) | 6.9 µM
13 | FC(F)(F)c1ccc2[nH]c(-c3ccc(-c4cccc(CNCCN5CCNCC5)c4)cc3)nc2c1.O=C(O)C(F)(F)F [TCMDC-132864] | 14.90 µM | 1080 nM | 1710 nM | 12.31 µM | 0 (0: NO) | 1 (1: YES) | 17.5 µM
14 | FC(F)(F)c1ccc2[nH]c(-c3cccc(-c4ccc(CNCCN5CCNCC5)cc4)c3)nc2c1.O=C(O)C(F)(F)F [TCMDC-132872] | 10.72 µM | 860 nM | 1790 nM | 8.81 µM | 0 (0: NO) | 1 (1: YES) | 12.62 µM
15 | Fc1ccc2[nH]c(-c3ccc(-c4ccc(CN5CCC(CCN6CCCCC6)CC5)cc4)cc3)nc2c1.O=C(O)C(F)(F)F [TCMDC-133924] | 4.62 µM | 460 nM | 1700 nM | 3.94 µM | 0 (0: NO) | 1 (1: YES) | 5.3 µM
16 | Fc1ccc2[nH]c(-c3cccc(-c4ccc(CN5CCC(CCN6CCCCC6)CC5)cc4)c3)nc2c1.O=C(O)C(F)(F)F [TCMDC-133940] | 4.99 µM | 430 nM | 1880 nM | 4.79 µM | 0 (0: NO) | 1 (1: YES) | 5.2 µM
17 | FC(F)(F)c1ccc2[nH]c(-c3ccc(-c4cccc(CN5CCC(CCN6CCCCC6)CC5)c4)cc3)nc2c1.O=C(O)C(F)(F)F [TCMDC-133941] | 3.93 µM | 510 nM | 1260 nM | 4.45 µM | 0 (0: NO) | 0 (0: NO) | 3.4 µM
18 | Cc1n[nH]c2ccc(-c3ccc4nccc(N5CCC(N)CC5)c4c3)cc12.Cl [TCMDC-134315] | 9.27 µM | 380 nM | 2450 nM | 6.88 µM | 0 (0: NO) | 1 (1: YES) | 11.66 µM
19 | CC(C)c1ccc(CN2CCC(CNC(=O)c3cc(-c4cccc(F)c4)cs3)C2)cc1.O=C(O)C(F)(F)F (centres unmarked) [TCMDC-134437] | 5.77 µM | 450 nM | 1370 nM | 6.24 µM | 0 (0: NO) | 1 (1: YES) | 5.3 µM
20 | CC(C)(C)c1ccc(CN2CCC(CNC(=O)c3cc(-c4ccccc4C(F)(F)F)cs3)C2)cc1.O=C(O)C(F)(F)F (centres unmarked) [TCMDC-134441] | 8.09 µM | 310 nM | 690 nM | 9.77 µM | 1 (1: YES) | 1 (1: YES) | 6.4 µM
21 | CC(C)(C)c1ccc(CN2CCC(CNC(=O)c3cc(-c4cccc(C(F)(F)F)c4)cs3)C2)cc1.O=C(O)C(F)(F)F (centres unmarked) [TCMDC-134442] | 5.65 µM | 420 nM | 950 nM | 6.39 µM | 0 (0: NO) | 1 (1: YES) | 4.9 µM
22 | CC(C)(C)c1ccc(CN2CCC(CNC(=O)c3cc(-c4ccccc4F)cs3)C2)cc1.O=C(O)C(F)(F)F (centres unmarked) [TCMDC-134443] | 8.35 µM | 340 nM | 830 nM | 9.30 µM | 1 (1: YES) | 1 (1: YES) | 7.4 µM
23 | CC(C)(C)c1ccc(CN2CCC(CNC(=O)c3cc(-c4ccccc4Cl)cs3)C2)cc1.O=C(O)C(F)(F)F (centres unmarked) [TCMDC-134445] | 7.23 µM | 690 nM | 1010 nM | 6.17 µM | 0 (0: NO) | 1 (1: YES) | 8.3 µM
24 | CC(C)(C)c1ccc(CN2CCC(CNC(=O)c3cc(-c4cccc(Cl)c4)cs3)C2)cc1.O=C(O)C(F)(F)F (centres unmarked) [TCMDC-134446] | 9.36 µM | 610 nM | 990 nM | 7.42 µM | 0 (0: NO) | 1 (1: YES) | 11.3 µM
